Reference: PMC6706930, “A novel oral micellar fenretinide formulation with enhanced bioavailability and antitumour activity against multiple tumours from cancer stem cells” (Journal of Experimental & Clinical Cancer Research : CR, 2019)

Tests used:
[1] = Plasma pharmacokinetics, acute study (single oral administration); format: in vivo, CD1 female mice; settings: for Cmax ±SD / AUC 0-last / HL / Tmax: plasma analyte
Description: (§1) The experiments were performed in CD1 female mice, 7 weeks of age, (body weight 25 ± 2 g) obtained from Envigo RMS SrL (Udine, Italy). They were maintained under specific-pathogen-free conditions with constant temperature and humidity, according to institutional guidelines regularly checked by a certified veterinarian. Animal experimentation was conducted in conformance with the following laws, regulations, and policies governing the care and use of laboratory animals: Italian Governing Law (D. l. 26/2014; Authorization n.19/2008-A issued March 6, 2008 by the Ministry of Health). Mario Negri Institutional Regulations and Policies providing internal authorizations for persons conducting animal experiments (Quality Management System Certificate –UNI EN ISO 9001:2008 – Reg. N 86121). The experimental protocol was reviewed by the Mario Negri Institute Ethical Committee and approved by the Italian Ministry of Health (Aut. Min. No 489/2016-Pr).
(§2) The pharmacokinetics of oral Bio-nFeR was investigated in comparison to that of the reference formulation NCI-FeR, after single administration of multiple doses and after chronic administrations, daily for 2 weeks or bi-daily for 1 week. Bio-nFeR was reconstituted at 20 mg/mL fenretinide to allow the administration of 200 mg/Kg fenretinide that corresponded to the highest dose. The doses of 100, 50 and 10 mg/Kg were administered by using serial dilution of the 20 mg/mL solution.
(§3) NCI-FeR prepared, as per the NCI instructions, at 11.6% w:w fenretinide:internal capsule components, was diluted with corn oil to obtain the treatment solutions at the concentrations of 20, 15 and 10 mg/mL, corresponding to the administered doses of 200, 150 and 100 mg/Kg respectively.
(§4) The oral pharmacokinetics of Bio-nFeR were investigated in four independent groups of 24 mice, randomized to receive different treatment with the following fenretinide equivalent doses: 10, 50, 100 and 200 mg/Kg. The drug was administered by oral gavage and after treatment, blood samples were taken at 15 and 30 min and at 1, 2, 4, 8/10, 24 and 48 h and collected in heparinized tubes from the retro-orbital plexus of the mice under isoflurane anesthesia. Mice were then sacrificed by cervical dislocation and liver, kidney and brain were removed and immediately frozen in dry-ice for future determination. To obtain plasma, blood was centrifuged at 4000 rpm for 10 min at 4 °C. To evaluate fenretinide and metabolites excretion, urine and faeces were collected over a 0–24 h and 24–48 h periods. The collection was performed in three mice per group of treatment, individually housed into metabolic cages for urine and faeces collection. All the biological samples were stored at − 20 °C until analysis. To compare the absorption of Bio-nFeR to NCI-FeR and to study the bioavailability, another independent groups of 24 mice were randomized to receive an oral dose of 200 mg/Kg of NCI-FeR. Blood samples were taken at the time reported above. Twenty-four hours fractions of urine and faeces were collected in three mice per group of treatment. Plasma and the other biological specimens were stored at − 20 °C until analysis. Chronic study: the oral pharmacokinetic of Bio-nFeR in comparison with NCI-FeR were also investigated after chronic administrations. Mice were divided in three independent groups, randomized to receive a single treatment of 150 mg/Kg or different repeated treatments of 150 mg/Kg, daily for 2 weeks (12 days on and 2 days off), or 100 mg/Kg bi-daily for 1 week (5 days on 2 days off). Bio-nFeR and NCI-FeR were administered by oral gavage, collecting blood samples at 0.5, 1, 2, 4, 8/10 and 24 h, the day of the single treatment and at 0, 1, 2, 4, 8/10, 24 and 48 h after the last dose of both the chronic treatments. The procedures of blood collection, plasma preparation, sacrifice of mice and storing of samples were as reported in acute study. […]

[2] = Plasma pharmacokinetics, chronic study (150 mg/Kg single vs daily for 2 weeks); format: in vivo, CD1 female mice; settings: for AUC 0-last / Cmax ±SD / HL / Tmax: plasma analyte
Description: as §1, §2, §3, §4

[3] = single oral Bio-nFeR 10 mg/kg, Suppl. Table 2 A
[4] = single oral Bio-nFeR 50 mg/kg, Suppl. Table 2 A
[5] = single oral Bio-nFeR 100 mg/kg, Suppl. Table 2 A
[6] = single oral Bio-nFeR 200 mg/kg, Suppl. Table 2 A
[7] = single oral Bio-nFeR, 4-HPR dose 200mg/Kg, Suppl. Table 2 B
[8] = single oral NCI-nFeR, 4-HPR dose 200mg/Kg, Suppl. Table 2 B
[9] = oral Bio-nFeR 150 mg/kg daily, 2 week

SMILES: COc1ccc(NC(=O)\C=C(C)/C=C/C=C(C)\C=C\C2=C(C)CCCC2(C)C)cc1 [MPR]
- Cmax ±SD ([1]; mice, single oral Bio-nFeR 10 mg/kg, Suppl. Table 2 A): 120.6 ng/mL
- Cmax ±SD ([1]; mice, single oral Bio-nFeR 50 mg/kg, Suppl. Table 2 A): 778.9 ng/mL
- Cmax ±SD ([1]; mice, single oral Bio-nFeR 100 mg/kg, Suppl. Table 2 A): 1112.6 ng/mL
- Cmax ±SD ([1]; mice, single oral Bio-nFeR 200 mg/kg, Suppl. Table 2 A): 1070.5 ng/mL
- AUC 0-last [1, 3]: 1750.7 ng·h/mL
- HL [1, 3]: 9.4 h
- Tmax [1, 3]: 4 h
- AUC 0-last [1, 4]: 9931.5 ng·h/mL
- HL [1, 4]: 10.3 h
- Tmax [1, 4]: 4 h
- AUC 0-last [1, 5]: 15439.7 ng·h/mL
- HL [1, 5]: 8.6 h
- Tmax [1, 5]: 4 h
- AUC 0-last [1, 6]: 21449.6 ng·h/mL
- HL [1, 6]: 11.6 h
- Tmax [1, 6]: 4 h
- AUC 0-last [1, 7]: 21449.6 ng·h/mL
- Cmax ±SD [1, 7]: 1070.5 ng/mL
- HL [1, 7]: 11.6 h
- Tmax [1, 7]: 4 h
- AUC 0-last [1, 8]: 23406.1 ng·h/mL
- Cmax ±SD [1, 8]: 1407.0 ng/mL
- HL [1, 8]: 9.9 h
- Tmax [1, 8]: 4 h
- amount of metabolite in plasma in comparison to 4-HPR ([1]; study of multiple doses, after Bio-nFeR administration): ~15%
- relative percent amount of metabolite versus 4-HPR in plasma ([2]; after single and repeated treatment): ~15%
- AUC 0-last [2, 9]: 22086.1 ng·h/mL
- Cmax ±SD [2, 9]: 1147.9 ng/mL
- HL [2, 9]: 11.2 h
- Tmax [2, 9]: 4 h
- AUC 0-last ([2]; oral Bio-nFeR 150 mg/kg, Day 1): 10435.4 ng·h/mL
- Cmax ±SD ([2]; oral Bio-nFeR 150 mg/kg, Day 1): 798.0 ng/mL
- HL ([2]; oral Bio-nFeR 150 mg/kg, Day 1): 8.6 h
- Tmax ([2]; oral Bio-nFeR 150 mg/kg, Day 1): 4 h
